{"source": "patent US9145435B2", "about": "“Urea compounds” (Eli Lilly and Company, priority 2013, dated 2015)", "key": {"[1]": {"molecular_target": "T1, human SGLT1 (Homo sapiens, UniProt P13866)", "T1 sequence (P13866 1-664)": "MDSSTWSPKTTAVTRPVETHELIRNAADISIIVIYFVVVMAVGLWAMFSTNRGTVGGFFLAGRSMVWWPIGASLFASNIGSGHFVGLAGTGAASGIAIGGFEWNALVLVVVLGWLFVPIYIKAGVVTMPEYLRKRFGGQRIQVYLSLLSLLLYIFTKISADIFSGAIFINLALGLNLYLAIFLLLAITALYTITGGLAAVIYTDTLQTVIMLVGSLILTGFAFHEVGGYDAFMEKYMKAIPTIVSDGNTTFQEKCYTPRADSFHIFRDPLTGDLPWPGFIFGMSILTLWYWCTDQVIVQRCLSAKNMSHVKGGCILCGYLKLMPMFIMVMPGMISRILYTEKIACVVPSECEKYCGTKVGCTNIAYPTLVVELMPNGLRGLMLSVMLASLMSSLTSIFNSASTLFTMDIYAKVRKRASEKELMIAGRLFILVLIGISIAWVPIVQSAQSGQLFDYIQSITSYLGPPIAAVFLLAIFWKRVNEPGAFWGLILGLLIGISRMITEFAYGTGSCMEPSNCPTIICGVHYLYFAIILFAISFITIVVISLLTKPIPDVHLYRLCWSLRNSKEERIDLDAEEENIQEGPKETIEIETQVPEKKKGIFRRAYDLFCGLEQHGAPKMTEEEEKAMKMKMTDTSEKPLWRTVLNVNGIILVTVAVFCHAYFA", "experiment": "Sodium-dependent 14C-AMG uptake assay in CHO-K1 cells expressing human SGLT1", "type": "cell-based", "details": "n=9", "source_text": "(§1) The cDNA encoding human SGLT1 (slc5a1, NM_000343) and mouse SGLT1 (slc5a1, NM_019810.4) are purchased from Openbiosystems. The cDNA is cloned into pcDNA3.1+ for mammalian expression and is stably transfected into Chinese hamster ovary (CHO)-K1 cells using standard mammalian transfection procedures. An SGLT-expressing sub-clone of each over-expressing cell line is selected based on resistance to neomycin (Geneticin, Invitrogen) and activity in the ^14C-a-methyl-D-glucopyranoside (^14C-AMG) uptake assay (see below). Stable SGLT-expressing cells are maintained using standard cell culture techniques.\n(§2) The SGLT activity is measured as sodium-dependent ^14C-AMG uptake in the above cell lines described as follows. One hundred […] of culture medium containing 30,000 cells are seeded to each well of a 96-well BioCoat poly-D-lysine plate (Becton Dickson) and cultured at 37° C. overnight. The culture medium is aspirated and cells are washed twice with […] of Reaction Buffer (140 mM NaCl, 2 mM KCl, 1 mM CaCl2, MgCl2, and 14 mM N-2-hydroethylpiperrazine-N′-2-ethanesulfonic acid (Hepes), pH 7.5). The excess buffer is tapped out onto paper towels. Thirty-five […] of Reaction Buffer are added to each well. […] After mixing, the scintillation signal in the plate is counted in a MicroBeta (PerkinElmer). […]"}, "[2]": {"molecular_target": "T2, mouse SGLT1 (Mus musculus, UniProt Q8C3K6)", "T2 sequence (Q8C3K6 1-665)": "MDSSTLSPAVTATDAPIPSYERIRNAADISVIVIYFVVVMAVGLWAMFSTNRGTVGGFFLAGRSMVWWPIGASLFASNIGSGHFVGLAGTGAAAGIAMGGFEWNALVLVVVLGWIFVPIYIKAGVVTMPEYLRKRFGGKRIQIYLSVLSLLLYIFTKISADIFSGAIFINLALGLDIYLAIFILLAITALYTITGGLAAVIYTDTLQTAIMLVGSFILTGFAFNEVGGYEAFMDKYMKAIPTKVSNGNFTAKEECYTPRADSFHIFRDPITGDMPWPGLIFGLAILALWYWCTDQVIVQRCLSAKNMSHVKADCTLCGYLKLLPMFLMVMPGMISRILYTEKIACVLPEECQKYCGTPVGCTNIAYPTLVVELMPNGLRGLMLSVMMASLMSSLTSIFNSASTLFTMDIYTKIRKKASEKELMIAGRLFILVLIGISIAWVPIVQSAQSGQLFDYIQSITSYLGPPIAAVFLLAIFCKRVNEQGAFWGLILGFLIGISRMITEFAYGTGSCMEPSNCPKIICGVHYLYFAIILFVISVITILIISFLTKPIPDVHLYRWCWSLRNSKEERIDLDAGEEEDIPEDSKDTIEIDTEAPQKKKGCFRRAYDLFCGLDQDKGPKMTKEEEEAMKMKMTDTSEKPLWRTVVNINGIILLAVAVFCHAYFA", "experiment": "Sodium-dependent 14C-AMG uptake assay in CHO-K1 cells expressing mouse SGLT1", "type": "cell-based", "details": "n=6", "source_text": "as §1, §2"}, "[3]": {"tested_on": "C57B1/6 mice", "experiment": "Glucose lowering effects in oral glucose tolerance test (OGTT)", "type": "in vivo, mouse", "details": "for Glucose 20 Minute / Glucose 40 Minute / Glucose 60 Minute / Baseline Adjusted AUC (glucose) / Glucose Cmax / Glucose Tmax / Glucose 0 Minute: OGTT, 10 mg/kg oral, Mean ± SEM; for Glucose 20 Minute: 20 min after dextrose; for Glucose 40 Minute: 40 min after dextrose; for Glucose 60 Minute: 60 min after dextrose; for Glucose 0 Minute: baseline before 3 g/kg dextrose", "description": "The test compound is formulated by adding a vehicle of 1% hydroxyethylcellulose, 0.25% Tween® 80 w/antifoam 0.05% to preweighed test compound to make a 1 mg/ml solution. The mixture is probe sonicated for approximately 1 minute. A stir bar is added, and the resulting suspension is stirred continuously throughout dosing.\nOne of two sets of single housed C57B1/6 mice are weighed and body weights used to determine study groups (n=5), within a working range of 26-30 g. After grouping, the mice are orally gavaged with 10 ml/kg test compound preparation or vehicle, thirty seconds apart. […] Both sets of mice are then fasted overnight by removing access to food, late afternoon before test day. The following morning, the remaining mice, are weighed and bled (via tail snip) for glucose. Study groups (n=5) are determined using fasted glucose values, within a working range of 80-100 mg/dl. After grouping, the mice are orally gavaged using the same protocol as the previous day.\nAt eight and eighteen hours after each respective compound treatment is started, a baseline blood sample is taken for measuring glucose (from the first animal). The animal is then immediately given an oral dose of 50% dextrose (Hospira®) at 3 g/kg. Blood samples are taken for glucose, exactly thirty seconds apart, by tail vein so that blood is collected in each animal at 20, 40 and 60 minutes after the dextrose dose."}}, "data": [{"smiles": "Cc1cccc2c1c(Cc1ccc(/C=C/CCN3CCCC4(CCN(C(=O)CNC(=O)NCC(C)C)CC4)C3)cc1)cn2[C@@H]1O[C@H](CO)[C@@H](O)[C@H](O)[C@H]1O", "note": "[Example 1, 1-isobutyl-3-[2-[4-[(E)-4-[4-[[4-methyl-1-[(2R,3R,4S,5S,6R)-3,4,5-trihydroxy-6-(hydroxymethyl)tetrahydropyran-2-yl]indol-3-yl]methyl]phenyl]but-3-enyl]-4,9-diazaspiro[5.5]undecan-9-yl]-2-oxo-ethyl]urea]", "values": [{"measurement": "IC50", "setting": "[1]", "result": "17.4 ± 14.6", "unit": "nM"}, {"measurement": "IC50", "setting": "[2]", "result": "13.6 ± 7.3", "unit": "nM"}, {"measurement": "Glucose 20 Minute", "setting": "[3]; 8 hrs post dose", "result": "119.1 ± 11.4", "unit": "mg/dL"}, {"measurement": "Glucose 40 Minute", "setting": "[3]; 8 hrs post dose", "result": "127.7 ± 8.32", "unit": "mg/dL"}, {"measurement": "Glucose 60 Minute", "setting": "[3]; 8 hrs post dose", "result": "132.6 ± 8.85", "unit": "mg/dL"}, {"measurement": "Baseline Adjusted AUC (glucose)", "setting": "[3]; 8 hrs post dose", "result": "2752 ± 507", "unit": "mg/dL"}, {"measurement": "Glucose Cmax", "setting": "[3]; 8 hrs post dose", "result": "134.7 ± 8.31", "unit": "mg/dL"}, {"measurement": "Glucose Tmax", "setting": "[3]; 8 hrs post dose", "result": "48 ± 8", "unit": "min"}, {"measurement": "Glucose 0 Minute", "setting": "[3]; 8 hrs post dose", "result": "70.2 ± 5.47", "unit": "mg/dL"}, {"measurement": "Glucose 20 Minute", "setting": "[3]; 18 hrs post dose", "result": "116.1 ± 2.71", "unit": "mg/dL"}, {"measurement": "Glucose 40 Minute", "setting": "[3]; 18 hrs post dose", "result": "130.7 ± 4.47", "unit": "mg/dL"}, {"measurement": "Glucose 60 Minute", "setting": "[3]; 18 hrs post dose", "result": "124.1 ± 1.42", "unit": "mg/dL"}, {"measurement": "Baseline Adjusted AUC (glucose)", "setting": "[3]; 18 hrs post dose", "result": "1792 ± 254", "unit": "mg/dL"}, {"measurement": "Glucose Cmax", "setting": "[3]; 18 hrs post dose", "result": "132.7 ± 3.27", "unit": "mg/dL"}, {"measurement": "Glucose Tmax", "setting": "[3]; 18 hrs post dose", "result": "48 ± 4.9", "unit": "min"}, {"measurement": "Glucose 0 Minute", "setting": "[3]; 18 hrs post dose", "result": "87.7 ± 3.36", "unit": "mg/dL"}, {"measurement": "glucose excursion after oral bolus of 50% dextrose", "setting": "[3]; normal glycemic C57B1/6 mouse, eight or eighteen hours after administration", "result": "decrease"}]}]}
